Data as given in PMC6934184, “Selective DNA-PKcs inhibition extends the therapeutic index of localized radiotherapy and chemotherapy” (The Journal of Clinical Investigation, 2019).

Target: T1, ROS1 (Homo sapiens, UniProt P08922)
T1 construct: purchased Thermo Fisher Scientific (Life Technologies) SelectScreen
Test: SelectScreen Z'LYTE
Assay type: biochemical
Method in brief: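 Percent values come from Thermo SelectScreen profiling of NU5455, combining activity and binding assays. CSF1R was run in Z'LYTE format at Km app ATP, and CAMK1 in Adapta format with ATP listed at 10.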

T1 sequence (P08922 28-2347): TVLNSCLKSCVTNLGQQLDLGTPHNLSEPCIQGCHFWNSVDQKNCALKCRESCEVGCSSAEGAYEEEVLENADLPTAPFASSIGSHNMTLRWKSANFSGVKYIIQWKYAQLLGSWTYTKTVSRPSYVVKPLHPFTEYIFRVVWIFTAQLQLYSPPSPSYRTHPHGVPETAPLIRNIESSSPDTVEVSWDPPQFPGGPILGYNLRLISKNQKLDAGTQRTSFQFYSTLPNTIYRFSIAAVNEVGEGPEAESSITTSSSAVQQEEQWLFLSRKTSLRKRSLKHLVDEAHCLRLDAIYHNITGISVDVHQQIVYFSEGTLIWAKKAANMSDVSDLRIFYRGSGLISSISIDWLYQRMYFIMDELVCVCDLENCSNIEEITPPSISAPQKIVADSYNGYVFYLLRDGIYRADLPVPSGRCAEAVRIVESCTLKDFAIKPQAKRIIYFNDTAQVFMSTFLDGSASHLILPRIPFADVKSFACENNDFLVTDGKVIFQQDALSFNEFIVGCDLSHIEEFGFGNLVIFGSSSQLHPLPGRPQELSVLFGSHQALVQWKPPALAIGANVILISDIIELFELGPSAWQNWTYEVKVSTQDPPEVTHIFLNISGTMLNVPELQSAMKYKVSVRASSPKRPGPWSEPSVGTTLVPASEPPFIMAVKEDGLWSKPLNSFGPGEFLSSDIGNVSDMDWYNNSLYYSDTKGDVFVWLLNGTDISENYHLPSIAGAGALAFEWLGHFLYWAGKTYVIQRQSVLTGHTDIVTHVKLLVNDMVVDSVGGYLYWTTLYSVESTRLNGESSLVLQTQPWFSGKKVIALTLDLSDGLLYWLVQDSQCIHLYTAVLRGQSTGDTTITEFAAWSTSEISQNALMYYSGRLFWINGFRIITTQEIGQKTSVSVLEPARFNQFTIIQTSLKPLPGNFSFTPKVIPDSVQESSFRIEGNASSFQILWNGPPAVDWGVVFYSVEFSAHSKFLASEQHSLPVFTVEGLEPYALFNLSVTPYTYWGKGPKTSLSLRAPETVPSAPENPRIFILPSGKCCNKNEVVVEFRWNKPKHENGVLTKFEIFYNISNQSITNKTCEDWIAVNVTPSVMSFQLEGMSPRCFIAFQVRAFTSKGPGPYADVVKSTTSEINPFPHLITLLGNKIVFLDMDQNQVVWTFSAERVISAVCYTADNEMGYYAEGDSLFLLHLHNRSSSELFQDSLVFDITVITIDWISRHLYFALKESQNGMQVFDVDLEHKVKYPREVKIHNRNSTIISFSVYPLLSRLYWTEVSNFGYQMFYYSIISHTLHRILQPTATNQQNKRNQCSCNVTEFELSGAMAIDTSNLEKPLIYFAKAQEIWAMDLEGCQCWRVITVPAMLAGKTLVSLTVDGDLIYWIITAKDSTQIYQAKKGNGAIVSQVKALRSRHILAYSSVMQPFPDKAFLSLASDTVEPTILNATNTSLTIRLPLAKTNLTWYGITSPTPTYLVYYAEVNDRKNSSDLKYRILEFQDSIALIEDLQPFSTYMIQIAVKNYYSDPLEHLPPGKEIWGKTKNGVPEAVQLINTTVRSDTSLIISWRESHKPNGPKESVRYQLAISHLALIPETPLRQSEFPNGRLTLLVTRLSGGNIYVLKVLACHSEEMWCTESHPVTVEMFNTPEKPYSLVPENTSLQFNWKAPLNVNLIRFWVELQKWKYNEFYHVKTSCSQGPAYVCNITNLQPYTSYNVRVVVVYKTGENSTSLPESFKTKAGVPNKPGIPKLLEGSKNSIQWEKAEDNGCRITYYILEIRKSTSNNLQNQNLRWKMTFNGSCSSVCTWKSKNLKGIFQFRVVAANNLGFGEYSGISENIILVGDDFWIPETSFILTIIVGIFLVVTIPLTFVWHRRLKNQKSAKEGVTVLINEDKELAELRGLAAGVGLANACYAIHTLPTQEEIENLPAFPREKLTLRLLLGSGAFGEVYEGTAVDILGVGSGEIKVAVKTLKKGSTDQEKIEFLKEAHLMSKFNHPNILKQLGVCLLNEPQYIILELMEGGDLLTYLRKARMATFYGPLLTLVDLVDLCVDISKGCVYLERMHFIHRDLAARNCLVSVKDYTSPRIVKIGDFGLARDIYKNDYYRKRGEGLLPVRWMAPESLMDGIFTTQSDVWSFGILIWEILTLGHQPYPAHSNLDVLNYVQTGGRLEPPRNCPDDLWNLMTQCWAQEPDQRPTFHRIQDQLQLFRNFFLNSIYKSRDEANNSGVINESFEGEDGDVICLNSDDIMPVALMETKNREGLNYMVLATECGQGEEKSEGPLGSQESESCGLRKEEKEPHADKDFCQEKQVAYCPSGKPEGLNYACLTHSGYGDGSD

Structure (SMILES): CN(C(=O)CN1CCOCC1)c1ccc2sc3c(-c4cccc5c(=O)cc(N6CC7CCC(C6)O7)oc45)cccc3c2c1 [NU5455]
- inhibition at 1 µM: 8%
